Experimental data: PubChem BioAssay (NCI)
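Method: 48-hour compound exposure of cells in 96-well plates, five concentrations, linear interpolation of endpoints. TGI marks complete inhibition of growth.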

Assays:
Assay in all cases: NCI tumour cell line growth inhibition, 48 h
786-0 renal = test system: 786-0 renal
A498 renal = test system: A498 renal
A549 NSCLC = test system: A549 NSCLC
ACHN renal = test system: ACHN renal
CCRF-CEM leukemia = test system: CCRF-CEM leukemia
COLO 205 colon = test system: COLO 205 colon
DLD-1 colon = test system: DLD-1 colon
DMS 114 small cell lung = test system: DMS 114 small cell lung
DMS 273 small cell lung = test system: DMS 273 small cell lung
EKVX NSCLC = test system: EKVX NSCLC
HCC-2998 colon = test system: HCC-2998 colon
HCT-116 colon = test system: HCT-116 colon
HL-60(TB) leukemia = test system: HL-60(TB) leukemia
HOP-62 NSCLC = test system: HOP-62 NSCLC
HOP-92 NSCLC = test system: HOP-92 NSCLC
HT29 colon = test system: HT29 colon
K-562 leukemia = test system: K-562 leukemia
KM12 colon = test system: KM12 colon
KM20L2 colon = test system: KM20L2 colon
LOX IMVI melanoma = test system: LOX IMVI melanoma
LXFL 529 NSCLC = test system: LXFL 529 NSCLC
M14 melanoma = test system: M14 melanoma
M19-MEL melanoma = test system: M19-MEL melanoma
MALME-3M melanoma = test system: MALME-3M melanoma
MOLT-4 leukemia = test system: MOLT-4 leukemia
NCI-H226 lung = test system: NCI-H226 lung
NCI-H23 lung = test system: NCI-H23 lung
NCI-H522 lung = test system: NCI-H522 lung
OVCAR-3 ovarian = test system: OVCAR-3 ovarian
OVCAR-5 ovarian = test system: OVCAR-5 ovarian
OVCAR-8 ovarian = test system: OVCAR-8 ovarian
RPMI-8226 leukemia = test system: RPMI-8226 leukemia
RXF 393 renal = test system: RXF 393 renal
SF-268 CNS = test system: SF-268 CNS
SF-295 CNS = test system: SF-295 CNS
SF-539 CNS = test system: SF-539 CNS
SK-MEL-2 melanoma = test system: SK-MEL-2 melanoma
SK-MEL-28 melanoma = test system: SK-MEL-28 melanoma
SK-OV-3 ovarian = test system: SK-OV-3 ovarian
SN12C renal = test system: SN12C renal
SNB-19 CNS = test system: SNB-19 CNS
SNB-75 CNS = test system: SNB-75 CNS
SNB-78 CNS = test system: SNB-78 CNS
SR leukemia = test system: SR leukemia
SW-620 colon = test system: SW-620 colon
TK-10 renal = test system: TK-10 renal
U251 CNS = test system: U251 CNS
UACC-257 melanoma = test system: UACC-257 melanoma
UACC-62 melanoma = test system: UACC-62 melanoma
UO-31 renal = test system: UO-31 renal
XF 498 CNS = test system: XF 498 CNS
CAKI-1 renal = test system: CAKI-1 renal
HCT-15 colon = test system: HCT-15 colon
IGROV1 ovarian = test system: IGROV1 ovarian
NCI-H460 lung = test system: NCI-H460 lung
OVCAR-4 ovarian = test system: OVCAR-4 ovarian
SK-MEL-5 melanoma = test system: SK-MEL-5 melanoma

ON1CCc2c([nH]c3ccccc23)C1c1ccc(Cl)cc1 (stereo not given)
TGI (786-0 renal): > 100 µM
TGI (A498 renal): > 100 µM
TGI (A549 NSCLC): > 100 µM
TGI (ACHN renal): > 100 µM
TGI (CCRF-CEM leukemia): 93.8 µM
TGI (COLO 205 colon): 80.8 µM
TGI (DLD-1 colon): > 100 µM
TGI (DMS 114 small cell lung): > 100 µM
TGI (DMS 273 small cell lung): 97.4 µM
TGI (EKVX NSCLC): > 100 µM
TGI (HCC-2998 colon): 72.3 µM
TGI (HCT-116 colon): 15.4 µM
TGI (HL-60(TB) leukemia): 79.5 µM
TGI (HOP-62 NSCLC): > 100 µM
TGI (HOP-92 NSCLC): 41.1 µM
TGI (HT29 colon): 40.1 µM
TGI (K-562 leukemia): > 100 µM
TGI (KM12 colon): 92.9 µM
TGI (KM20L2 colon): 77.5 µM
TGI (LOX IMVI melanoma): 37.4 µM
TGI (LXFL 529 NSCLC): > 100 µM
TGI (M14 melanoma): > 100 µM
TGI (M19-MEL melanoma): > 100 µM
TGI (MALME-3M melanoma): 77.6 µM
TGI (MOLT-4 leukemia): 79.7 µM
TGI (NCI-H226 lung): 73 µM
TGI (NCI-H23 lung): 86.9 µM
TGI (NCI-H522 lung): 60 µM
TGI (OVCAR-3 ovarian): 74.5 µM
TGI (OVCAR-5 ovarian): 99.1 µM
TGI (OVCAR-8 ovarian): > 100 µM
TGI (RPMI-8226 leukemia): 84.3 µM
TGI (RXF 393 renal): 60.3 µM
TGI (SF-268 CNS): > 100 µM
TGI (SF-295 CNS): 91 µM
TGI (SF-539 CNS): > 100 µM
TGI (SK-MEL-2 melanoma): 64.5 µM
TGI (SK-MEL-28 melanoma): > 100 µM
TGI (SK-OV-3 ovarian): > 100 µM
TGI (SN12C renal): 81 µM
TGI (SNB-19 CNS): > 100 µM
TGI (SNB-75 CNS): > 100 µM
TGI (SNB-78 CNS): > 100 µM
TGI (SR leukemia): > 100 µM
TGI (SW-620 colon): > 100 µM
TGI (TK-10 renal): > 100 µM
TGI (U251 CNS): 29.8 µM
TGI (UACC-257 melanoma): > 100 µM
TGI (UACC-62 melanoma): > 100 µM
TGI (UO-31 renal): 91.7 µM
TGI (XF 498 CNS): 57.6 µM

C/C(=C\c1ccccc1)C(O)C(=O)c1nc2ccc(Cl)cc2[nH]c1=O (stereo not given)
TGI (786-0 renal): > 100 µM
TGI (A498 renal): > 100 µM
TGI (A549 NSCLC): > 100 µM
TGI (ACHN renal): > 100 µM
TGI (CAKI-1 renal): > 100 µM
TGI (CCRF-CEM leukemia): 78.9 µM
TGI (COLO 205 colon): > 100 µM
TGI (DLD-1 colon): > 100 µM
TGI (DMS 114 small cell lung): > 100 µM
TGI (DMS 273 small cell lung): > 100 µM
TGI (EKVX NSCLC): > 100 µM
TGI (HCC-2998 colon): > 100 µM
TGI (HCT-116 colon): > 100 µM
TGI (HCT-15 colon): > 100 µM
TGI (HL-60(TB) leukemia): > 100 µM
TGI (HOP-62 NSCLC): > 100 µM
TGI (HT29 colon): > 100 µM
TGI (IGROV1 ovarian): > 100 µM
TGI (K-562 leukemia): > 100 µM
TGI (KM12 colon): > 100 µM
TGI (KM20L2 colon): > 100 µM
TGI (LOX IMVI melanoma): > 100 µM
TGI (LXFL 529 NSCLC): > 100 µM
TGI (M14 melanoma): > 100 µM
TGI (M19-MEL melanoma): > 100 µM
TGI (MALME-3M melanoma): > 100 µM
TGI (MOLT-4 leukemia): > 100 µM
TGI (NCI-H226 lung): > 100 µM
TGI (NCI-H23 lung): > 100 µM
TGI (NCI-H460 lung): > 100 µM
TGI (NCI-H522 lung): > 100 µM
TGI (OVCAR-3 ovarian): > 100 µM
TGI (OVCAR-4 ovarian): > 100 µM
TGI (OVCAR-5 ovarian): > 100 µM
TGI (OVCAR-8 ovarian): > 100 µM
TGI (RPMI-8226 leukemia): > 100 µM
TGI (SF-268 CNS): > 100 µM
TGI (SF-295 CNS): > 100 µM
TGI (SF-539 CNS): > 100 µM
TGI (SK-MEL-2 melanoma): > 100 µM
TGI (SK-MEL-28 melanoma): > 100 µM
TGI (SK-MEL-5 melanoma): > 100 µM
TGI (SK-OV-3 ovarian): > 100 µM
TGI (SN12C renal): > 100 µM
TGI (SNB-19 CNS): > 100 µM
TGI (SNB-78 CNS): > 100 µM
TGI (SR leukemia): > 100 µM
TGI (SW-620 colon): > 100 µM
TGI (TK-10 renal): > 100 µM
TGI (U251 CNS): > 100 µM
TGI (UACC-257 melanoma): > 100 µM
TGI (UACC-62 melanoma): > 100 µM
TGI (UO-31 renal): > 100 µM
TGI (XF 498 CNS): > 100 µM
